Results on two compounds are retold here after US10851105B2, “Bicyclic heterocycles as FGFR4 inhibitors” (Incyte Corporation, priority 2014, dated 2020).

Usually IC50 stands for the concentration at which inhibition is half-maximal.

For one assay, the target named is FGFR3 (Homo sapiens (Human), UniProt P22607). Description: FGFR Enzymatic Assay (FRET peptide phosphorylation), FGFR3. The following applies: for FGFR3/FGFR4: IC50 ratio; for IC50: read-out: FGFR3 IC50.
A further assay deals with FGFR2 (Homo sapiens (Human), UniProt P21802). Briefly: FGFR Enzymatic Assay (FRET peptide phosphorylation), FGFR2. The following applies: for FGFR2/FGFR4: IC50 ratio.
Chain of FGFR2 (P21802 22-821): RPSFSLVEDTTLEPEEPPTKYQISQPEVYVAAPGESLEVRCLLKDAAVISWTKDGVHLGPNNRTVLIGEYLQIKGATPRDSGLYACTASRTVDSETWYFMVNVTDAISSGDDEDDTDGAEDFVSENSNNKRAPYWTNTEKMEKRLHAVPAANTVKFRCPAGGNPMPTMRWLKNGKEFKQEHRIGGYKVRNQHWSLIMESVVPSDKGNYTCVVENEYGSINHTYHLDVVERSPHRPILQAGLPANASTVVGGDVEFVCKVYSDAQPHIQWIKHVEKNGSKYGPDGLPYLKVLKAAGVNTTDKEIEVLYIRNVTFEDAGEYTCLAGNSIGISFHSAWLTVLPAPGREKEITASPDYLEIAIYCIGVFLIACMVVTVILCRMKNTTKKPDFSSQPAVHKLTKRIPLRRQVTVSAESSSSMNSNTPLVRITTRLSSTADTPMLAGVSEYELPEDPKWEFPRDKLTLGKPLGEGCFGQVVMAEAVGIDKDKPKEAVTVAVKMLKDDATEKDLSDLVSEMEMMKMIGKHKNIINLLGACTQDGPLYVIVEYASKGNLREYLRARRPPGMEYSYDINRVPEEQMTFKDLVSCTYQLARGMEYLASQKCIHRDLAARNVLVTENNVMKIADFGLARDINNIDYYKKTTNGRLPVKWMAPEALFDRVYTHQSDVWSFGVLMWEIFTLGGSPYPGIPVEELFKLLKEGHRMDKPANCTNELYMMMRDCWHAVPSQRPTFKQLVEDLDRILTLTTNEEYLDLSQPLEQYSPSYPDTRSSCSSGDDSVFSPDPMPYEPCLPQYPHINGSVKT
A further assay deals with FGFR4 (Homo sapiens (Human), UniProt P22455). Briefly: FGFR Enzymatic Assay (FRET peptide phosphorylation), FGFR4.
Chain of FGFR4 (P22455 22-802): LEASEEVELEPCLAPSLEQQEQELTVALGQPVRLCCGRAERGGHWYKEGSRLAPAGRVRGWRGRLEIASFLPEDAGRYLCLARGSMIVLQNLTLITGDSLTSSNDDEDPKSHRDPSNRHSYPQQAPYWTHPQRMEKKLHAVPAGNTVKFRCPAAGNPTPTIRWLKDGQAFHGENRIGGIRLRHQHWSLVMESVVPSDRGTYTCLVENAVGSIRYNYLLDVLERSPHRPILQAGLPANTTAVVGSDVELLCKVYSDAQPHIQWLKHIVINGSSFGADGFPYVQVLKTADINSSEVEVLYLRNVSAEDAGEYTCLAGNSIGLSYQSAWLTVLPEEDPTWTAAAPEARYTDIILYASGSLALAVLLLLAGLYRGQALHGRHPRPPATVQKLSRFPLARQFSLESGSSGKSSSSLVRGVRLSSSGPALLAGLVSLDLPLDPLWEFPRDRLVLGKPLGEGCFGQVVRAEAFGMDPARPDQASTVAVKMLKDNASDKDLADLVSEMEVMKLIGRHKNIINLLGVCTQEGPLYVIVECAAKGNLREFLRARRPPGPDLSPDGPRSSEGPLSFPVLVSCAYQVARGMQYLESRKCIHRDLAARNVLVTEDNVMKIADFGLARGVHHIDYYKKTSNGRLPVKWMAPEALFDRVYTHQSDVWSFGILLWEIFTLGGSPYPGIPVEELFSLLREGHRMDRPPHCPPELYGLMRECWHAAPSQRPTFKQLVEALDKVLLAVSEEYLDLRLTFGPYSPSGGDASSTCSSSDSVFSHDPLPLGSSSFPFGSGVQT
The next assay addresses FGFR1 (Homo sapiens (Human), UniProt P11362). Briefly: FGFR Enzymatic Assay (FRET peptide phosphorylation), FGFR1. The following applies: for FGFR1/FGFR4: IC50 ratio.
Where [1] appears, read: pre-incubated for 5 to 10 minutes.
Setting [2] is: read-out: FGFR2 IC50, pre-incubated for 5 to 10 minutes.
Where [3] appears, read: read-out: FGFR1 IC50, pre-incubated for 5 to 10 minutes.

Like-named read-outs stand apart in the source and are kept apart here.

Chain of FGFR1 (P11362 22-822): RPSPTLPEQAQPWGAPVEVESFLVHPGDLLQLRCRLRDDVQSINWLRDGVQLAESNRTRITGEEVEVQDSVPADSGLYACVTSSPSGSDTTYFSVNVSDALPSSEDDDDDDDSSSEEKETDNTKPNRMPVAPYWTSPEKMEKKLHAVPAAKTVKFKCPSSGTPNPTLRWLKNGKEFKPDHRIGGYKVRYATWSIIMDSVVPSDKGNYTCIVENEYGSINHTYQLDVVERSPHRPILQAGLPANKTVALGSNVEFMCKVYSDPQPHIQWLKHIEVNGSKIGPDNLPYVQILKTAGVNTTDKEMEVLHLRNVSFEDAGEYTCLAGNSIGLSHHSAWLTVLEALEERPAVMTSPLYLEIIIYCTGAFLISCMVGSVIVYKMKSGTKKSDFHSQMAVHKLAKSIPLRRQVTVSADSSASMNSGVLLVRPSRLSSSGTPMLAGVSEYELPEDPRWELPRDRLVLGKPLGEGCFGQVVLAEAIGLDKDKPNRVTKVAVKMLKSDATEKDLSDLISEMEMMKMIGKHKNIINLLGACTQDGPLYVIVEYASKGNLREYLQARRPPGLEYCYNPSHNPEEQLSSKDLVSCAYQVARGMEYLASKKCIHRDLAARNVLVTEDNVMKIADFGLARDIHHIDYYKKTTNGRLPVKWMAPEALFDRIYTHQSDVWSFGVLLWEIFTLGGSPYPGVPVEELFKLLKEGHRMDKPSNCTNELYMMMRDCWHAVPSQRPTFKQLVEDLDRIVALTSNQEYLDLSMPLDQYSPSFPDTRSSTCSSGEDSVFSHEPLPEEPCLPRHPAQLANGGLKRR
Chain of FGFR3 (P22607 23-806): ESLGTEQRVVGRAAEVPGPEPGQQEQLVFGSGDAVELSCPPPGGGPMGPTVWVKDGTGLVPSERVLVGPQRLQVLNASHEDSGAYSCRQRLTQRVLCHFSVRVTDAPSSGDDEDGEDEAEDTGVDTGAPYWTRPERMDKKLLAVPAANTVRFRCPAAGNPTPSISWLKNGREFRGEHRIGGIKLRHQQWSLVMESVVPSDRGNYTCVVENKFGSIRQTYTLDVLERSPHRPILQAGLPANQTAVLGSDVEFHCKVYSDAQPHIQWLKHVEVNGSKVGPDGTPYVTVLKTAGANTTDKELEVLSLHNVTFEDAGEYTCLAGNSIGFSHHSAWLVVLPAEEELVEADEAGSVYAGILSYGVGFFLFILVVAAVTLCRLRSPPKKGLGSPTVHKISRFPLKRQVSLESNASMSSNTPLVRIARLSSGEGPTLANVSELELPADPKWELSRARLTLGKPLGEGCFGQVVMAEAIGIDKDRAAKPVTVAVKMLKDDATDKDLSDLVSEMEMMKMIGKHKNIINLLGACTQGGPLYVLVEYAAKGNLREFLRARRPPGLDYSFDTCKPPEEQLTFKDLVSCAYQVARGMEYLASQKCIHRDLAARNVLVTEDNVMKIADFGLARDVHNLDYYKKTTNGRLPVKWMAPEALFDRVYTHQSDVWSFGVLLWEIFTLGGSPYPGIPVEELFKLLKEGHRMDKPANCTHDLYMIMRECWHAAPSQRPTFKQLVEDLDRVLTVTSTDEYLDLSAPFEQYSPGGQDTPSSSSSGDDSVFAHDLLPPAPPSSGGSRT
Procedure for FGFR1: (§1) The inhibitor potency of the exemplified compounds was measured in an enzyme assay that measures peptide phosphorylation using FRET measurements to detect product formation. Inhibitors were serially diluted in DMSO and a volume of 0.5 μL was transferred to the wells of a 384-well plate. For FGFR3, a 10 μL volume of FGFR3 enzyme (Millipore) diluted in assay buffer (50 mM HEPES, 10 mM MgCl2, 1 mM EGTA, 0.01% Tween-20, 5 mM DTT, pH 7.5) was added to the plate and pre-incubated for a time between 5-10 minutes and up to 4 hours. Appropriate controls (enzyme blank and enzyme with no inhibitor) were included on the plate. […] The plate was incubated at 25° C. for 1 hr. […] The plate was allowed to equilibrate for ˜1 hr before scanning the wells on a PheraStar plate reader (BMG Labtech).
(§2) The enzymes were purchased from Millipore or Invitrogen.
(§3) GraphPad prism3 was used to analyze the data. The IC50 values were derived by fitting the data to the equation for a sigmoidal dose-response with a variable slope. Y=Bottom+(Top-Bottom)/(1+10^((Log IC50−X)*HillSlope)) where X is the logarithm of concentration and Y is the response.
Procedure for FGFR2: as §1, §2, §3
Procedure for FGFR3: Inhibitors were serially diluted in DMSO and a volume of 0.5 μL was transferred to the wells of a 384-well plate. For FGFR3, a 10 μL volume of FGFR3 enzyme (Millipore) diluted in assay buffer (50 mM HEPES, 10 mM MgCl2, 1 mM EGTA, 0.01% Tween-20, 5 mM DTT, pH 7.5) was added to the plate and pre-incubated for a time between 5-10 minutes and up to 4 hours. Appropriate controls (enzyme blank and enzyme with no inhibitor) were included on the plate. […] The plate was incubated at 25° C. for 1 hr. […] The plate was allowed to equilibrate for ˜1 hr before scanning the wells on a PheraStar plate reader (BMG Labtech).
as §3
Procedure for FGFR4: as §1, §2, §3

`C=CC(=O)Nc1ccc(N2CCN(C)CC2)cc1Nc1cc2c(cn1)CN(c1c(F)c(OC)cc(OC)c1F)C(=O)C21CC1` [Example 11, N-(2-(2′-(2,6-difluoro-3,5-dimethoxyphenyl)-3′-oxo-2′,3′-dihydro-1′H-spiro [cyclopropane-1,4′-[2,7]naphthyridine]-6′-ylamino)-4-(4-methylpiperazin-1-yl)phenyl)acrylamide]: the FGFR3/FGFR4 at FGFR3 (setting [1]) was >10; at FGFR3 (pre-incubated for 4 hours), >100. The IC50 is > 200 nM on FGFR3 (setting [1]); > 200 nM on FGFR3 (pre-incubated for 4 hours); 30 to 200 nM against FGFR2; > 200 nM at FGFR2 (setting [2]); < 10 nM on FGFR4 (read-out: FGFR4 IC50, pre-incubated for 5 to 10 minutes); < 10 nM on FGFR4 (read-out: FGFR4 IC50, pre-incubated for 4 hours). Moreover, the IC50 on FGFR1 (FGFR1 IC50 (nM), pre-incubated for 4 hours) was 30 to 200 nM; on FGFR1 (setting [3]), > 200 nM. In addition, the FGFR2/FGFR4 at FGFR2 (setting [1]) is recorded as >10; at FGFR2 (pre-incubated for 4 hours), >25. The FGFR1/FGFR4 on FGFR1 (setting [1]) is given as >10; at FGFR1 (pre-incubated for 4 hours), >25.
As for `C=CC(=O)N[C@H]1CCC[C@H]1Oc1ncc2c(n1)C1(CC1)C(=O)N(c1c(F)c(OC)cc(OC)c1F)C2` [Example 12, N-((1 S,2R)-2-(6′-(2,6-difluoro-3,5-dimethoxyphenyl)-7′-oxo-6′,7′-dihydro-5′H-spiro[cyclopropane-1,8′-pyrido[4,3-d]pyrimidine]-2′-yloxy)cyclopentyl)acrylamide], the results for the FGFR3/FGFR4 on FGFR3 (setting [1]) and at FGFR3 (pre-incubated for 4 hours) were >10 and >100, respectively. The half-inhibitory concentration (IC50) was > 200 nM on FGFR3 (setting [1]); > 200 nM at FGFR3 (pre-incubated for 4 hours); > 200 nM on FGFR2 (setting [2]); > 200 nM at FGFR2 (read-out: FGFR2 IC50, pre-incubated for 4 hours); 30 to 200 nM against FGFR4 (FGFR4 IC50 (nM), pre-incubated for 5 to 10 minutes); 10 to 30 nM against FGFR4 (FGFR4 IC50 (nM), pre-incubated for 4 hours). Moreover, the concentration for half-maximal inhibition (IC50) is > 200 nM on FGFR1 (setting [3]) and > 200 nM at FGFR1 (read-out: FGFR1 IC50, pre-incubated for 4 hours). The FGFR2/FGFR4 at FGFR2 (setting [1]) is >10; on FGFR2 (pre-incubated for 4 hours), >100. Also, the FGFR1/FGFR4 on FGFR1 (setting [1]) was >10; on FGFR1 (pre-incubated for 4 hours), >100.
